Measured values taken from article PMC12172326 (Journal of Biomedical Science, 2025).
Like-named read-outs stand apart in the source and are kept apart here.

Assays:
[1] = 100 μg/ml; data derive from ref 64; cited from earlier work
human cereblon = target: T1, human cereblon (Homo sapiens, UniProt Q96SW2); experiment: cereblon/BRD3 binding assay (AlphaScreen in methods, FRET assay in results); conditions: dBET1-Cereblon-BRD3 interaction
T1 construct: purchased BPS Bioscience 79770
Method: Following 30 min incubation with shaking at room temperature, AlphaLISA anti-FLAG Acceptor and Alpha Glutathione Donor beads (PerkinElmer) were sequentially added and then incubated for a further 1 h at room temperature for each of the added chemicals. Alpha counts were, thereafter, recorded on a Synergy Neo2 (BioTek, Agilent, Santa Clara, CA). The relative activity of the alpha signal was calculated after subtraction of the “blank value” from all readings, and the value of vehicle group was then set as 100%.

[2] = tested on: LPS-induced cytokines (TNF-α, IL-6, IL-1β, KC/GRO, IL-10); experiment: systemic LPS challenge in mice, plasma and cerebral cortex cytokines; format: in vivo, mouse
Method: 8-week-old male C57/BL6 J mice (25–30 g; n = 28) were randomly assigned to five experimental groups. […] Rolipram, a discontinued PDE4 inhibitor, with known anti-inflammatory activity was used as a positive control. One hour later, animals were administered either LPS (3 mg/kg, serotype 0111:B4, Sigma Aldrich, in normal saline, 0.1 mL/10 g) or an alike volume of saline (without LPS) via the I.P. route. The LPS dose was selected from prior pilot studies to provide a substantial but sub-maximal rise in plasma pro-inflammatory cytokine levels, in line with our prior research. […] Four hours after LPS administration, animals were euthanized, and blood and brain tissue were collected and placed on wet ice. Plasma was quickly separated from blood by centrifugation (10,000g, 5 min, 4 °C), and together with a brain sample (cerebral cortex), were stored at − 80 °C. At a later time, cerebral cortex samples were sonicated in a TRIS-based lysis buffer (Mesoscale Discovery) with 3 × protease/phosphatase inhibitors (Halt™ Protease and Phosphatase Inhibitor Cocktail, Thermo Fisher Scientific, Waltham, MA, USA). Samples were then centrifuged (10,000g, 10 min, 4 °C) and protein concentrations were quantified by bicinchoninic acid assay (BCA, Thermo Fisher Scientific). Mouse plasma and cerebral cortex samples were analyzed by multi-pro-inflammatory cytokine ELISA (V-PLEX Pro-inflammatory Panel 1 Mouse Kit, Mesoscale Discovery) following the manufacturer’s protocol.

[3] = LPS-induced inflammation in RAW 264.7 cells (viability, nitrite, TNF-α); format: cell-based, mouse; conditions: mouse, RAW 264.7 cells, RAW 264.7, 0.6 to 60 μM, LPS 20 ng/mL, MTS, read-out: cellular viability
Method: (§1) RAW 264.7 cell culture: RAW 264.7 cells were obtained from ATCC (Manassas, VA, USA) and grown in Dulbecco’s modified Eagle’s (DMEM), high glucose, GlutaMAX™ media supplemented with 10% FBS (ThermoFisher Scientific, Asheville, NC, USA). Cells were maintained at 37 °C and 5% CO2, were propagated as described by ATCC guidelines, and were cultured as previously communicated. […] One hour later, cells were challenged with lipopolysaccharide (LPS) (20 ng/ml, E. Coli O55:B5, Sigma, St Louis, MO, USA; Cat # L4005). This LPS concentration was selected from pilot studies to provide a submaximal inflammatory insult. Twenty-four hours later, culture media was collected to quantify cell viability (CellTiter 96® Aqueous One Solution Cell Proliferation Assay kit (MTS); Promega, Madison, WI, USA, Cat # G3580), secreted TNF-α protein (ELISA MAX™ Deluxe Set Mouse TNF-α, BioLegend, CA, USA; Cat # 430915) and nitrite (Griess Reagent System, Promega, Madison, WI, USA; Cat # G2930).

RAW 264.7 cells = experiment: as above; format: cell-based, mouse; conditions: RAW 264.7, LPS 20 ng/mL, 24 h, p < 0.05
Method: as §1

[4] = human; cited from earlier work
aqueous solubility = format: physicochemical
Method: This coarse drug suspension was transferred into Eppendorf microtubes containing approximately 0.4 g of 0.1–0.2 mm yttrium-stabilized zirconia-silica beads (Silibeads® Typ ZY Sigmund Lindner, Germany). The drug was vortexed twice, at 3000 rpm for 45 min, using a beads-milling cell disruptor (Disruptor Genie®, Scientific Industries, USA). The resulting nanosuspension was collected from each microtube and sieved through a 40 µm filter (Cell Strainer, Falcon # 35234) to remove the zirconia-silica beads. […] The stock drug concentration was 10.83 mg/ml (37.4 mM). The drug vehicle was essentially the same ratio of Tween 80 and water, processed in the identical manner as the drug preparation.

[5] = rat; cited from earlier work
[6] = ex vivo stability in mouse plasma; format: in vitro ADME; conditions: 100 μg/ml, room temperature, 0-180 min
Method: An ex vivo evaluation of drug stability was conducted in mouse and human plasma samples (WuXi AppTec, Shanghai, China). […] Samples were, thereafter, incubated at room temperature for 0, 15, 30, 60, 120, and 180 min before immediate drug extraction. […] Extraction was performed by adding ethyl acetate containing the internal standard (donepezil—known to undergo first-pass hepatic metabolism) to the spiked sample (100 μL), vortexed for 1 min, and centrifuged at 13,000 rpm, 4 °C for 10 min. The supernatant was used for LC–MS/MS analysis.
LC–MS/MS analysis was performed with a Vanquish Flex UHPLC (Thermo Scientific) and a Orbitrap Exploris 240 mass spectrometer (Thermo Scientific). Samples were separated on a C18 UHPLC column (100 mm × 2.1 mm, 3 μm; Thermo Scientific). The mobile phase A for LC separation was 0.1% formic acid and the mobile phase B was 0.1% formic acid in methanol. The chromatography gradient was designed for a linear increase from 5% B in 1 min, 5% B to 95% B in 8 min, 95% B in 3 min, and 5% B in 3 min. The flow rate was maintained at 0.3 mL/min. Mass spectra were acquired using the data-dependent Top 4 MS2 (ddMS2) method with a mass scan (100–1000 m/z) and 120,000 MS resolution.

[7] = 26.5 and 53 mg/kg I.P. 1 h before LPS 3 mg/kg, 4 h, p < 0.05 to < 0.0001
[8] = cerebral cortex, 26.5 and 53 mg/kg I.P., LPS 3 mg/kg, 4 h

T1 sequence (Q96SW2 whole entry): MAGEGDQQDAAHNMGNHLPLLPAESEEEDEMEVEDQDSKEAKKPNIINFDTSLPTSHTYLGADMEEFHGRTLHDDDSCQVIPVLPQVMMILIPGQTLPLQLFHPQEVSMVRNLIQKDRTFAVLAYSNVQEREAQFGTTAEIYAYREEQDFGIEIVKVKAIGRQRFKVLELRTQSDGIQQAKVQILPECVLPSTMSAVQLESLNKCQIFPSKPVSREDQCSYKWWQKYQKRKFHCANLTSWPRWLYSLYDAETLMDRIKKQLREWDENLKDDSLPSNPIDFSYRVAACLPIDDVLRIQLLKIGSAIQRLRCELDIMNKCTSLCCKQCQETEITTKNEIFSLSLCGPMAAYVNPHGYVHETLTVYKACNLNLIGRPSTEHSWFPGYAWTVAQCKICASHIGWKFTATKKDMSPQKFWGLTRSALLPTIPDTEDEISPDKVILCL
T1 sequence (Q16531 whole entry partner): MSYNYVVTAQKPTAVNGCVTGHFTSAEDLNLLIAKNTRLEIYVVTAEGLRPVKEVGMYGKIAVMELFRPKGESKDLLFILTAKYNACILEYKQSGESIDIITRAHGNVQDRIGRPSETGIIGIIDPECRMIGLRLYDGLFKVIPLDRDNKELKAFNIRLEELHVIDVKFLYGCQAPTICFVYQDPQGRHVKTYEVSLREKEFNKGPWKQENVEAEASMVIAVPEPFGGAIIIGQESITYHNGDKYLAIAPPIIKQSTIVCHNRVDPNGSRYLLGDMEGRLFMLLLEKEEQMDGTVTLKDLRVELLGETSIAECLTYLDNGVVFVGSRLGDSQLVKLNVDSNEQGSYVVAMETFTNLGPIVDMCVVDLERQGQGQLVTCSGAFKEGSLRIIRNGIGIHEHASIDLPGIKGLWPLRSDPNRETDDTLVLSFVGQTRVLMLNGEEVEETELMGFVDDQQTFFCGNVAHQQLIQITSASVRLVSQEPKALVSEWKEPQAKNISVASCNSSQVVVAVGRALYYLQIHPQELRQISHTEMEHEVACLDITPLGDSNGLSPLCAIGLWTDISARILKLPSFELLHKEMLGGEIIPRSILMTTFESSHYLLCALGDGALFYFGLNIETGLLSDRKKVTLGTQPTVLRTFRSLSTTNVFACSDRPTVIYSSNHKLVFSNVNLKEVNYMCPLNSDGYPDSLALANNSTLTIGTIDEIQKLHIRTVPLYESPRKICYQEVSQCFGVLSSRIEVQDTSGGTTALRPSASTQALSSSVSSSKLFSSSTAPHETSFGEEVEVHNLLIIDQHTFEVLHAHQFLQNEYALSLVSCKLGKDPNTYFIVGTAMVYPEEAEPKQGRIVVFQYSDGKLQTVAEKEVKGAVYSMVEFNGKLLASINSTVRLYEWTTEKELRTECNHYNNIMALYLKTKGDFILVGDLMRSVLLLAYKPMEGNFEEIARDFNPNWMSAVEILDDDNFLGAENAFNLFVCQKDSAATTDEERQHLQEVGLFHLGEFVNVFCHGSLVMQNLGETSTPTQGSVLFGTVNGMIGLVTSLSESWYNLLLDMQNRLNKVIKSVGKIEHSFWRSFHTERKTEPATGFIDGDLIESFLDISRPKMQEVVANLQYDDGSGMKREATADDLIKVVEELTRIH
T1 sequence (Q13619 whole entry partner): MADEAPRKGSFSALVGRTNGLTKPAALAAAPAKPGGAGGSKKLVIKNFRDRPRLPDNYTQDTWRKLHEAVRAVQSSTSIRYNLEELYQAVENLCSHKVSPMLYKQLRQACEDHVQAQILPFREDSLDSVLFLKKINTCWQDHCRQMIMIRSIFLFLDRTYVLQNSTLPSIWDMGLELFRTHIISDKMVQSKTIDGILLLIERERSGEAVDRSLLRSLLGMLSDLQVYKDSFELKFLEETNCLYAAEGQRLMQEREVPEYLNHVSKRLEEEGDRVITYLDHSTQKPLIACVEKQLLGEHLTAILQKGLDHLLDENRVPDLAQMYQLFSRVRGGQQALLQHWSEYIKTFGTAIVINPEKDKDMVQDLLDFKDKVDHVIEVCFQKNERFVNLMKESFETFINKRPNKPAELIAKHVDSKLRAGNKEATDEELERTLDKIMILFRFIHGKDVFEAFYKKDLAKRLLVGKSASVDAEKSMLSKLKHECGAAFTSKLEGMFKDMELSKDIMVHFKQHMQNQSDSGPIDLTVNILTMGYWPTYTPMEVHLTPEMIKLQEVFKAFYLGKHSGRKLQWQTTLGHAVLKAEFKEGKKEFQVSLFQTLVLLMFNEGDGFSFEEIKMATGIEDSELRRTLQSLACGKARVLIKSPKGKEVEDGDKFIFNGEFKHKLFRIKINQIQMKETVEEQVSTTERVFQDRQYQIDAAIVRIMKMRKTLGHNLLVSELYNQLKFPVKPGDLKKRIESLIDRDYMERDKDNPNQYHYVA
T1 sequence (P62877 whole entry partner): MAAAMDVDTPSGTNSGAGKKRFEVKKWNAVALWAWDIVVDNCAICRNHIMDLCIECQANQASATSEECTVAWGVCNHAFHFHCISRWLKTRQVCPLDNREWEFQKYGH

SMILES: Nc1cccc2c1C(=S)N(C1CCC(=O)NC1=O)C2=O (stereo not shown) [3-MP, 3-monothiopomalidomide]
- ex vivo stability in human plasma [1]: stable
- IC50 (human cereblon): 210 nM
- LPS-mediated elevation in plasma IL-6 [2, 7]: lowered
- LPS-mediated elevation in plasma TNF-α [2, 7]: lowered
- LPS-induced brain IL-1β [2, 8]: dose-dependent reduction
- LPS-induced brain IL-6 [2, 8]: dose-dependent reduction
- LPS-induced brain KC/GRO [2, 8]: dose-dependent reduction
- LPS-induced brain TNF-α [2, 8]: dose-dependent reduction
- levels of the anti-inflammatory cytokine IL-10 ([2]; plasma and brain, 26.5 and 53 mg/kg I.P., compared to LPS treatment): unaffected
- viability at 24 h [3]: > 90%
- concentration significantly reducing LPS-induced TNF-α (RAW 264.7 cells): ≥ 30 µM
- concentration significantly reducing LPS-induced nitrite (RAW 264.7 cells): ≥ 10 µM
- stability in ex vivo plasma and liver homogenate samples [4]: relatively stable
- aqueous solubility (aqueous solubility): poorly aqueous soluble
- stability in ex vivo plasma and liver homogenate samples [5]: relatively stable
- ex vivo stability in mouse plasma [6]: stable
